{"source": "patent US20110077230A1", "about": "“COPPER ORGANOCOMPLEXES, USE THEREOF AS ANTITUMOR MEANS AND FOR PROTECTING HEALTHY TISSUE FROM IONIZING RADIATION” (CHARITE - UNIVERSITATSMEDIZIN BERLIN, priority 2008, published 2011)", "key": {"melanoma B 16": {"system": "melanoma B 16", "assay": "B 16 melanoma in mice, peroral administration versus intraabdominal injection", "assay_type": "in vivo, mice of the line C 57Bl", "set-up": "Average weight of tumor: unit not given here", "conditions": "for Average weight of tumor: day 16", "description": "The melanoma B 16 was implanted in 23 mice of the line C 57Bl by subcutaneous injection into the right thigh. The animals were divided into five groups of four to five mice each.\nGroup I received complex A at a dosage of 7 mg/kg as a suspension in olive oil which was administered perorally 3, 5, 7 and 9 days after transplantation of the tumor.\nGroup II was treated as group I, but using a dosage of 10 mg/kg administered on the 3rd, 4th, 5th, 6th, 7th, 8th, 9th and 10th day.\nGroup III was treated as group II, but using a dosage of 15 mg/kg.\nGroup IV received complex A 3, 5, 7 and 9 days after transplantation of the tumor at a dosage of 7 mg/kg, dissolved in DMSO, to which end the solution was administered by injection in the form of a 4% suspension in physiological saline.\nGroup V received no treatment.\nOn day 16 of the experiment the animals were sacrificed and examined."}, "Walker carcinosarcoma": {"system": "Walker carcinosarcoma", "assay": "Nitrosyl complexes of hem iron (EPR) in Walker carcinosarcoma", "assay_type": "in vivo, rats", "conditions": "30 mg/kg intraabdominally in liposomes, especially with hyperglycemia and ultrasound", "excerpt": "The oxygen metabolism in malignant cells is affected in such a way that increased NO production in these cells results in increased binding of NO to the hem iron, thereby disturbing the normal function thereof. The formation of such NO bonds becomes manifest in the EPR spectrum as a characteristic triplet overlying a singlet.\nThe effect of complex A on the concentration of Fe—NO bonds was investigated in an experiment using rats. The Walker carcinosarcoma was transplanted in the rats. 17 days after transplantation the animals were administered intraabdominally with complex A at a dosage of 30 mg/kg, suspended in liposomes from egg lecithin. Some of the animals also received glucose or glucose plus ultrasound."}, "EAC cells": {"system": "EAC cells", "assay": "Cytosolic calcium (chlortetracycline fluorescence) in EAC cells", "assay_type": "cell-based, mice", "conditions": "depending on the dose", "description": "The Ehrlich ascites carcinoma (EAC) was obtained from white male mice of the strain MNR1 and the thymocytes from the thymus of rats of the Wistar line. Vitality of the cells was tested by vital staining using trypan blue and experiments and determined to be no less than 95% in all experiments. The NADH state in the EAC cells was assessed with reference to their fluorescence intensity. Measurement of the intracellular calcium concentration was performed according to the standard methodology of fluorescence using chlortetracycline. The membrane potential was measured using the fluorescent dye No. 1104. NADH is a source of electrons in the oxidative phosphorylation process. […] These effects are directed to inhibiting the NAD-dependent dehydrogenase. As a result, the respiratory chain in the tumor cells is inhibited.\nThe concentration of intracellular calcium is a trigger for a number of intracellular processes (FIG. 17c, 17d)."}, "[1]": {"system": "human mammary gland tumor cells, T2N1M0 stage", "assay": "In vitro effect on human mammary gland tumor cells, Experiment 1", "assay_type": "cell-based", "description": "Tumor cells were collected from the surgical material of female patients suffering from mammary carcinoma at two different stages. The tumor tissue was added with sterile 0.25% trypsin solution and centrifuged repeatedly in RPMI-1640 nutrient medium for 15 minutes at 1500 revolutions per minute. The amount of resulting cells was counted and the suspension of tumor cells divided into five equal groups. The RPMI-1640 nutrient medium was added with 12% fetal calf serum. The cells were incubated for 48 h at 37° C. in a 5% CO2 stream.\nThe preparations were dissolved in 4% DMSO and physiological saline and acidified with HCl.\nTwo experiments were performed using cancer cells derived from tumors of different stages. To differentiate the various stages of cancer, the TNM classification is used internationally which takes into account the tumor size (T), lymph node affection (N=nodal status) and the extent of metastasis (M).\n(T2: tumor up to 5 cm; N1; metastases in 3 lymph nodes; M0: no distant metastases). A suspension including 40 million cells was added with 50 μl of each preparation.\nThe 5 groups with cancer cells received the following:\nAfter subjecting the preparations to flow incubation for 60 minutes, trypan blue stained cells were produced, and dead cells and apoptosis could be determined; dead cells and apoptotic cells were determined in specific units of time and morphological findings."}, "[2]": {"system": "BJAB cells (lymphoma cell line)", "assay": "Induction of apoptosis (DNA fragmentation, propidium iodide, FACS) in BJAB cells", "assay_type": "cell-based, human", "conditions": "0.1 mmol of complex A, 72 hours", "description": "BJAB cells (lymphoma cell line) at a concentration of 1×10^5/ml were treated with increasing concentrations of complex A dissolved in DMSO and incubated for 72 hours at 37° C. and 5% CO2. Following propidium iodide staining, the DNA fragments were detected using flow cytometry (FACS analysis). KO (untreated cell suspension) and DMSO were carried along in an equivalent treatment."}, "BJAB cells": {"system": "BJAB cells", "assay": "Change in mitochondrial membrane potential (JC-1, flow cytometry) in BJAB cells", "assay_type": "cell-based, human", "conditions": "48 hours, concentration-dependent", "description": "Following treatment of the BJAB cells with different concentrations of complex A, carrying along a zero control and a solvent control, the cells were incubated for 48 hours at a temperature of 37° C. and 5% CO2. […] A concentration-dependent change of the mitochondrial membrane potential induced by complex A is found in more than 30% of the cells."}, "[3]": {"system": "human mammary gland tumor cells", "assay": "In vitro effect on human mammary gland tumor cells (trypan blue, photography)", "assay_type": "cell-based", "description": "From a patient with mammary carcinoma already showing signs of decay, postoperational material was collected and the tumor cells were separated therefrom. A suspension of these tumor cells was added with trypan blue dye and complex A. During the course of the test, three cells situated closely to each other (A, B and C) were documented by photography (FIGS. 22a, 22b and 22c). After incubating for 18 minutes, wrinkling of the membrane of cell A and invagination of the membrane of cell B can be recognized. After 28 minutes of incubation, cell fragments become stained with trypan blue, a sign that apoptosis has begun. After 43 minutes of incubation, membrane components and the contents thereof detach from the cells."}}, "data": [{"substance": "Copper-sarcolysine hydrochloride complex [complex A]", "values": [{"measurement": "% inhibition, mass percent", "setting": "melanoma B 16; Group I: peroral 7 mg/kg", "value": 62.0, "unit": "%"}, {"measurement": "% inhibition, volume percent", "setting": "melanoma B 16; Group I: peroral 7 mg/kg", "value": 84.1, "unit": "%"}, {"measurement": "Average volume of tumor", "setting": "melanoma B 16; Group I: peroral 7 mg/kg", "value": 1.39, "unit": "cm^3"}, {"measurement": "Average weight of tumor", "setting": "melanoma B 16; Group I: peroral 7 mg/kg in olive oil, days 3, 5, 7, 9", "value": "0.96 ± 0.14"}, {"measurement": "% inhibition, mass percent", "setting": "melanoma B 16; Group II: peroral 10 mg/kg", "value": 73.10, "unit": "%"}, {"measurement": "% inhibition, volume percent", "setting": "melanoma B 16; Group II: peroral 10 mg/kg", "value": 76.0, "unit": "%"}, {"measurement": "Average volume of tumor", "setting": "melanoma B 16; Group II: peroral 10 mg/kg", "value": 1.55, "unit": "cm^3"}, {"measurement": "Average weight of tumor", "setting": "melanoma B 16; Group II: peroral 10 mg/kg, days 3 to 10", "value": "0.68 ± 0.34"}, {"measurement": "% inhibition, mass percent", "setting": "melanoma B 16; Group III: peroral 15 mg/kg", "value": 100, "unit": "%"}, {"measurement": "% inhibition, volume percent", "setting": "melanoma B 16; Group III: peroral 15 mg/kg", "value": 100, "unit": "%"}, {"measurement": "Average volume of tumor", "setting": "melanoma B 16; Group III: peroral 15 mg/kg", "value": 0, "unit": "cm^3"}, {"measurement": "Average weight of tumor", "setting": "melanoma B 16; Group III: peroral 15 mg/kg, days 3 to 10", "value": 0}, {"measurement": "% inhibition, mass percent", "setting": "melanoma B 16; Group IV: injection 7 mg/kg", "value": 68.0, "unit": "%"}, {"measurement": "% inhibition, volume percent", "setting": "melanoma B 16; Group IV: injection 7 mg/kg", "value": 76.7, "unit": "%"}, {"measurement": "Average volume of tumor", "setting": "melanoma B 16; Group IV: injection 7 mg/kg", "value": 1.5, "unit": "cm^3"}, {"measurement": "Average weight of tumor", "setting": "melanoma B 16; Group IV: injection 7 mg/kg in DMSO/physiological saline, days 3, 5, 7, 9", "value": "1.025 ± 0.39"}, {"measurement": "fate of the tumor", "setting": "melanoma B 16; group 3: peroral 15 mg/kg", "value": "disappeared completely"}, {"measurement": "concentration of Fe—NO bonds (EPR)", "setting": "Walker carcinosarcoma", "value": "significantly reduces"}, {"measurement": "concentration of cytosolic calcium", "setting": "EAC cells", "value": "increase"}, {"measurement": "Living cells, %", "setting": "[1]; Experiment 1, T2N1M0", "value": "24.0 ± 1.90", "unit": "%"}, {"measurement": "Dead cells, %", "setting": "[1]; Experiment 1, T2N1M0, 40 million cells, 50 μl of preparation", "value": "76.0 ± 2.06", "unit": "%"}, {"measurement": "induction of apoptosis, % of the cells", "setting": "[2]", "value": 43.5, "unit": "%"}, {"measurement": "cells with change of the mitochondrial membrane potential", "setting": "BJAB cells", "value": "more than 30%"}, {"measurement": "incubation time to wrinkling / invagination of the cell membrane", "setting": "[3]", "value": 18, "unit": "min"}, {"measurement": "incubation time until cell fragments stain with trypan blue (apoptosis has begun)", "setting": "[3]", "value": 28, "unit": "min"}, {"measurement": "incubation time until membrane components and contents detach from the cells", "setting": "[3]", "value": 43, "unit": "min"}]}]}
